This note sets out measurements from PubChem BioAssay (NCI).

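Each compound was tested at five concentrations against cells in 96-well plates for 48 hours. Abbreviation: GI50, concentration required for 50% inhibition of growth. TGI is the concentration that stops growth completely.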

Some test systems named below: T-47D breast; RXF 393 renal; HT29 colon; ACHN renal; OVCAR-8 ovarian; HCT-15 colon; HOP-62 NSCLC; UO-31 renal.
Common to all, as to test: NCI anticancer screen, dose series, 48 h

Turning to `CC(=O)OC12OC(C)(C3C(=O)N(c4ccccc4)C(=O)C31)N(c1ccccc1)C2=O` (configuration not stated), the TGI in the test on T-47D breast, in the test on RXF 393 renal, in the test with HT29 colon, with ACHN renal, in the test on OVCAR-8 ovarian and in the test with HCT-15 colon was above 100 µM each time. Moreover, the TGI with HOP-62 NSCLC and in the test on UO-31 renal was above 100 µM in each case.

Turning to `CN(C)C=Nc1c2c(nc3ccccc13)CCCC2`, the TGI in the test with T-47D breast, in the test on RXF 393 renal, with HT29 colon, in the test with ACHN renal, in the test with OVCAR-8 ovarian and with HCT-15 colon was above 100 µM throughout. Also, the TGI in the test on HOP-62 NSCLC and in the test on UO-31 renal was above 100 µM in each case.

On to `C=CC(=C)CCC(Br)C(C)(C)Cl` (configuration not stated), for which the TGI with T-47D breast, in the test with RXF 393 renal, in the test on HT29 colon, in the test on ACHN renal, with OVCAR-8 ovarian and with HCT-15 colon was above 100 µM each time. In addition, the TGI in the test on HOP-62 NSCLC and in the test on UO-31 renal was above 100 µM in each case.

On to `COc1cc(/C=C/c2ccc(S(N)(=O)=O)cc2)cc(OC)c1`, for which the TGI in the test on T-47D breast is 41.6 µM; with RXF 393 renal, 34.1 µM; with HT29 colon it was 33.2 µM; in the test with ACHN renal, 66.3 µM; in the test with OVCAR-8 ovarian it was above 100 µM; with HCT-15 colon it was 53.5 µM. For the same compound, the results for the TGI in the test with HOP-62 NSCLC and with UO-31 renal were 62.7 µM and 52 µM, respectively. Moreover, the GI50 in the test on HT29 colon is 16.2 µM; in the test on ACHN renal, 23.5 µM; in the test on OVCAR-8 ovarian, 37.9 µM; with HCT-15 colon it was 17.4 µM.

For the compound `COC(=O)[C@@H](NC(=O)c1ccc(CNC(=O)/C(C)=C/c2ccccc2)cc1)C(C)C`, the TGI with T-47D breast, in the test on RXF 393 renal, with HT29 colon, with ACHN renal, with OVCAR-8 ovarian and in the test with HCT-15 colon was above 100 µM each time. The TGI with HOP-62 NSCLC and with UO-31 renal was above 100 µM each time.

For `O=C1C(=O)N(C23CC4CC(CC(C4)C2)C3)C(=S)N1c1ccccc1`, the TGI with T-47D breast, in the test with RXF 393 renal, in the test with HT29 colon, with ACHN renal, in the test with OVCAR-8 ovarian and with HCT-15 colon was above 100 µM throughout. In addition, the TGI in the test on HOP-62 NSCLC and in the test on UO-31 renal was above 100 µM throughout.

With `COc1ccccc1[C@@H]1CCC2CC[C@@H](c3ccccc3OC)[N+]21Cc1ccccc1` (some centres not stated), the TGI in the test on T-47D breast came to 10.8 µM; in the test on RXF 393 renal, 8.53 µM; in the test with HT29 colon, 10.1 µM; with ACHN renal, 12.6 µM; in the test with OVCAR-8 ovarian, 13.8 µM; in the test on HCT-15 colon, 15.2 µM. The TGI in the test with HOP-62 NSCLC came out at 13.3 µM; with UO-31 renal, 10.6 µM.

For `CCOC(=O)c1cc([N+](=O)[O-])cc([N+](=O)[O-])c1Sc1ncnc2nc[nH]c12`, the TGI with T-47D breast came to 3.34 µM; in the test on RXF 393 renal it was 3.29 µM; in the test with HT29 colon, 15.3 µM; in the test on ACHN renal, 4.17 µM; in the test on OVCAR-8 ovarian, 4.48 µM; in the test on HCT-15 colon it was 19.7 µM. The results for the TGI in the test on HOP-62 NSCLC and with UO-31 renal were 24.5 µM and 3.55 µM, respectively.

Consider `COc1cccc(/C=N/NC(=O)CN(C)C)c1O`, for which the TGI in the test with T-47D breast, with RXF 393 renal, in the test with HT29 colon, with ACHN renal, in the test with OVCAR-8 ovarian and with HCT-15 colon was above 100 µM throughout. In addition, the TGI with HOP-62 NSCLC and in the test with UO-31 renal was above 100 µM each time.

`O=C1C=CC(=O)[C@H]2C3C=CC(C4C3C3(Cl)C(Cl)=C(Cl)[C@]4(Cl)C3(Cl)Cl)[C@@H]12` (some centres not stated): the TGI in the test on T-47D breast was 23.2 µM; with RXF 393 renal it was 13.8 µM; in the test on HT29 colon, 12.2 µM; in the test on ACHN renal, 20.9 µM; in the test on OVCAR-8 ovarian, 20.7 µM; with HCT-15 colon, 16.6 µM. Further, the TGI with HOP-62 NSCLC came out at 31.1 µM; with UO-31 renal, 22.1 µM.

Regarding `COc1ccc(Oc2nc3c(N)cc(C(F)(F)F)cc3nc2-c2ccccc2)cc1`, the TGI is 26.9 µM with T-47D breast; 24.9 µM in the test with RXF 393 renal; 22.8 µM with HT29 colon; above 100 µM in the test with ACHN renal; above 100 µM in the test with OVCAR-8 ovarian; above 100 µM in the test on HCT-15 colon. Further, the TGI with HOP-62 NSCLC was 49.5 µM; with UO-31 renal, above 100 µM.

As for `Cc1cc2nc(CC(C(F)(F)F)C(F)(F)F)oc2cc1C`, the TGI with T-47D breast stood at 10.7 µM; with RXF 393 renal, 9.73 µM; in the test with HT29 colon, 7.91 µM; in the test with ACHN renal, 20.7 µM; with OVCAR-8 ovarian, 3.23 µM; in the test with HCT-15 colon, 26.8 µM. For the same compound, the TGI is 17.2 µM in the test with HOP-62 NSCLC and 26.2 µM in the test on UO-31 renal.

For `COc1ccc2nc3c([N+](=O)[O-])ccc(NCCCN(C)C)c3c(N)c2c1`, the TGI is 3.98 µM in the test with T-47D breast; 2.81 µM with RXF 393 renal; 2.31 µM in the test on HT29 colon; 2.59 µM in the test on ACHN renal; 4.69 µM in the test on OVCAR-8 ovarian; 2.62 µM with HCT-15 colon. Also, the TGI amounted to 3.89 µM with HOP-62 NSCLC and 3.71 µM in the test with UO-31 renal.

Turning to `NCCN(CCN)/[N+]([O-])=N/O`, the TGI in the test on T-47D breast, in the test on RXF 393 renal, in the test on HT29 colon, in the test with ACHN renal, in the test with OVCAR-8 ovarian and in the test with HCT-15 colon was above 100 µM each time. For the same compound, the TGI in the test on HOP-62 NSCLC and in the test on UO-31 renal was above 100 µM in each case.

For `CC(=O)N1CCN(CCCCN2c3ccccc3Sc3cc(N=[N+]=[N-])ccc32)CC1`, the TGI was found to be 15.2 µM in the test with T-47D breast; 24.4 µM in the test on RXF 393 renal; 27.8 µM in the test on HT29 colon; 28.2 µM in the test with ACHN renal; 32 µM in the test on OVCAR-8 ovarian; 28.1 µM in the test on HCT-15 colon. Besides, the results for the TGI with HOP-62 NSCLC and in the test on UO-31 renal were 27.4 µM and 23.5 µM, respectively.

`CCOC(=O)CCC(C(=O)OCC)n1nnc2ccc(Nc3c(C)[n+]([O-])c4cc(F)c(OCC)cc4[n+]3[O-])cc21` (configuration not stated): the TGI in the test on T-47D breast, with RXF 393 renal, with HT29 colon, in the test with ACHN renal, in the test with OVCAR-8 ovarian and in the test on HCT-15 colon was above 100 µM in each case. The TGI in the test with HOP-62 NSCLC and with UO-31 renal was above 100 µM throughout.
